Assay results published in paper PMC12734540, “Unraveling the Potential Antiviral Activity of Isoxazoline-Carbocyclic Monophosphate Nucleotides Against Echovirus 11” (Microorganisms, 2025).
Several values for one entry are separate records, joined by “and”; a condition that tells them apart may be missing. Identical values can stand only once.

Assays:
Echovirus 11 [1] = test: Post-infection CPE inhibition assay (crystal violet); assay type: cell-based, Echovirus 11 lineage 1; conditions: for reduction in E11 infection / E11-induced CPE / EC50: MOI 0.025, 48 h, VERO 76 cells; for EC50: post-infection CPE inhibition
Echovirus 11 [2] = test: E11 RNA quantification in supernatant by qRT-PCR (dose response); assay type: cell-based, Echovirus 11 lineage 1; conditions: 48 h; for reduction in extracellular viral RNA: supernatant, MOI 0.025, relative to untreated infected controls
Experimental: (§1) Quantification of E11 genomic RNA was used as a hallmark of RNA virus replication within VERO 76-infected cells. The viral RNA was extracted from both cell culture supernatants and cell-associated fractions and quantified by one-step qRT-PCR using the automated Elite InGenius one-step RNA Enterovirus ELITe MGB® Kit, according to the manufacturer’s protocols. The experiment was performed in triplicate and RNA yield was reported as the mean value of a triplicate assay. To improve the accuracy of extracellular RNA quantification, particularly at 48 h post-infection (p.i.), a secondary analysis was performed using a two-step SYBR Green RT-qPCR. In particular, specific primers targeting the gene encoding the RNA-dependent RNA polymerase (RdRp) of E11 were designed using the Primer3 software (version 4.1.0). […]. Reverse transcription was carried out with a high-capacity cDNA synthesis kit, followed by quantitative PCR using SYBR Green Master Mix on a real-time PCR instrument. Data were analyzed using the ΔΔCt method, with normalization to the synthetic RNA spike-in.
The antiviral activity of nucleotides 4a and 4b against E11 replication was further evaluated by quantifying viral RNA in the supernatant of infected VERO 76 cells treated with increasing concentrations of each compound (6.25–50 μM for 4a; 6.25–100 μM for 4b). Following viral infection at a MOI of 0.025, cells were treated and incubated for 48 h. Viral genome copies were then assessed by qRT-PCR. Treatment with nucleotide 4a led to a dose-dependent reduction in extracellular viral RNA, with a 72% decrease observed at 25 μM and an 89% reduction at 50 μM relative to untreated infected controls.

VERO 76 cells = conditions: for cell viability: 25 µM
Experimental: After 48 h of incubation, 20 µL of MTS reagent were added directly to each well and the plates were incubated according to the manufacturer’s protocol. The conversion of MTS into a soluble formazan product by metabolically active cells was quantified by measuring the absorbance at 490 nm. For data analysis, the optical density (OD) of each well was first corrected by subtracting the background OD (medium + MTS without cells). The percentage of cell viability was then calculated by comparing the corrected OD of treated samples with the mean corrected OD of untreated control cells (0 µM), which was set as 100% viability:Cell viability (%) = (OD_treated − OD_blank)/(mean OD_control − OD_blank) × 100
Two independent experiments were performed, each in triplicate (n = 6 per condition). Dose–response curves were generated and CC50 values were determined by nonlinear regression using GraphPad Prism software v. 8.0 (San Diego, CA, USA).

SARS-CoV-2 RdRp = test system: SARS-CoV-2 RdRp; set-up: method as in PMID 37810686; conditions: cited from earlier work
Echovirus 11 [3] = test: Time-course analysis of E11 RNA (cell monolayer and supernatant) by qRT-PCR; assay type: cell-based, Echovirus 11 lineage 1; conditions: 25 µM, MOI 0.025; for reduction in intracellular viral RNA levels: cell monolayer
Experimental: as §1
To evaluate the antiviral activity of compound 4a in VERO 76 cells over time, viral replication was assessed through quantification of viral genome copies via qRT-PCR in both the cell-associated and supernatant fractions, as well as by CPE analysis.
The amount of viral RNA measured in the intracellular and the supernatant fractions was compared against the control group, which consisted of VERO 76 cells that were infected but not subjected to 4a treatment. […] (Figure 5A). […] (Figure 5B).

Echovirus 11 [4] = test: Two-step SYBR Green RT-qPCR of RdRp gene RNA in supernatant; assay type: cell-based, Echovirus 11 lineage 1; conditions: 25 µM, 48 h p.i., vs untreated controls, p = 0.0003
Experimental: as §1
To further corroborate and confirm the inhibitory effect of 4a on viral RNA release into the extracellular environment, an additional quantification was performed using a two-step SYBR Green-based RT-qPCR targeting the gene ecoding for the viral RdRp. […]

Echovirus 11 [5] = test: Plaque assay of infectious titer; conditions: 25 µM, supernatants collected at 48 h p.i., vs untreated control (CV)
Experimental: E11 infectious titers were determined by plaque assay. Briefly, 100 µL of culture supernatant from infected cells were serially diluted (10-1–10-4) in DMEM containing 1% FBS. VERO 76 cells were seeded in 24-well plates 24 h before infection to obtain 90% confluency. Cells were inoculated with 50 µl of each dilution and incubated for 1 h at 37 °C with gentle rocking. After adsorption, the inoculum was removed, and cells were overlaid with DMEM containing 1% FBS and carboxymethyl cellulose (CMC). Following 72 h incubation, monolayers were fixed, stained with crystal violet, and plaques were counted. Viral titers were expressed as plaque-forming units per milliliter (PFU/mL) according to:PFU/mL = (number of plaques)/(dilution factor × inoculated volume).

Echovirus 11 [6] = test: Infectivity of viral progeny (CPE on fresh cells); conditions: 25 µM, supernatants collected 10, 24, 48 h p.i.
Experimental: To directly quantify this effect, a plaque assay was performed on supernatants collected at 48 h p.i.

**Q.** What does the source list for `O=P(O)(O)OC1CC(n2cnc3c(Cl)ncnc32)C2ON=C(c3c4ccccc4c(Br)c4ccccc34)C12` (stereo not shown) [4b]?
**A.** reduction in E11 infection / E11-induced CPE (Echovirus 11 [1]; 25 µM, post-infection): 58%; reduction in E11 infection / E11-induced CPE (Echovirus 11 [1]; 50 µM, post-infection): 38%; EC50 (Echovirus 11 [1]): 40.5 ± 1.8 µM; effect on viral RNA levels in supernatant (Echovirus 11 [2]; 6.25–100 µM, MOI 0.025): did not markedly affect viral RNA levels; CC50 (VERO 76 cells): 93.7 µM; cell viability (VERO 76 cells): ~ 77%; anti-SARS-CoV-2 RdRp activity (SARS-CoV-2 RdRp): moderate anti-SARS-CoV-2 RdRp activity

**Q.** With `CCC(CC)COC(=O)[C@H](C)N[P@](=O)(OC[C@H]1O[C@@](C#N)(c2ccc3c(N)ncnn23)[C@H](O)[C@@H]1O)Oc1ccccc1` [RDV, Remdesivir, reference compound] as the compound, how does the “protection from E11-induced CPE” value (Echovirus 11 [1]; 6.25 to 25 µM, post-infection, MOI 0.025, VERO 76 cells) read?
**A.** robust and dose-dependent protection from E11-induced CPE

**Q.** What does the source list for `O=P(O)(O)OC1CC(n2cnc3c(Cl)ncnc32)C2C(c3c4ccccc4c(Br)c4ccccc34)=NOC12` (stereo not shown) [4a]?
**A.** reduction in E11 infection / E11-induced CPE (Echovirus 11 [1]; 25 µM, post-infection): 90% and 83.9%; reduction in E11 infection / E11-induced CPE (Echovirus 11 [1]; 50 µM, post-infection): 75% and 79.8%; EC50 (Echovirus 11 [1]): 8.15 ± 1.4 µM; reduction in extracellular viral RNA (Echovirus 11 [2]; 25 µM): 72%; reduction in extracellular viral RNA (Echovirus 11 [2]; 50 µM): 89%; reduction in intracellular viral RNA levels (Echovirus 11 [3]; 10 h p.i.): 43%; reduction in intracellular viral RNA levels (Echovirus 11 [3]; 24 h p.i.): 65%; drop in viral RNA levels in supernatant (Echovirus 11 [3]; 24 h p.i.): 31%; drop in viral RNA levels in supernatant (Echovirus 11 [3]; 48 h p.i.): 91%; RdRp RNA levels in the supernatant (Echovirus 11 [4]): significantly reduced; cell viability (VERO 76 cells): > 80%; anti-SARS-CoV-2 RdRp activity (SARS-CoV-2 RdRp): moderate anti-SARS-CoV-2 RdRp activity; decrease of infectious viral titer (PFU/mL) (Echovirus 11 [5]): > 10 fold; CPE in fresh VERO 76 cells exposed to supernatants of treated cultures (Echovirus 11 [6]): markedly reduced CPE
